Experimental data: PMC11876601 (Molecular Systems Biology, 2025)
Several values for one entry are separate records, joined by “and”; a condition that tells them apart may be missing. Equal entries are not always repeated. Where two headings read alike, the source gives them in different places.

Assays:
[1] = tested on: p-sites in DNA-damaged AsPC-1 cells; assay: decryptM dose-resolved phosphoproteomics of ATRi in GEM-pre-treated cells; assay type: cell-based, human; settings: for EC50: Homo sapiens, ASPC1; for PTM response (norm. to 1 µM GEM): source data 4B (p-site not named)
Procedure: Cell culture medium was replaced 24 h after seeding. […] For time point 0, AsPC-1 cells were treated with a vehicle and lysed immediately. The final DMSO concentration in all experiments was 0.2%.
Briefly, cells were washed twice with PBS and lysed in SDS lysis buffer (2% SDS in 40 mM Tris-HCl, pH 7.6), followed by sonication for 10 min (30 s on/30 s off) using a Bioruptor (Diagenode). For DNA hydrolysis, samples were boiled at 95 °C for 10 min and incubated with 2% trifluoroacetic acid (TFA) for 1 min, before the reaction was quenched using 4% N-methylmorpholine. Lysate was cleared by centrifugation at 11,000 × g for 5 min and protein concentration was determined using the Pierce BCA Protein Assay Kit (Thermo Scientific).
Using 70% ethanol, samples were then precipitated on beads, followed by washing thrice with 80% ethanol and once with 100% acetonitrile. Subsequently, proteins were reduced and alkylated using 10 mM TCEP, 50 mM chloroacetamide, and 2 mM CaCl2 in 100 mM EPPS/NaOH, pH 8.5 for 1 h at 37 °C, followed by tryptic digestion at 37 °C for 16 h. Peptides were acidified with 1% TFA and desalted on Chromabond HLB plates (30 µm particle size, 10 mg capacity, Machery-Nagel), using 0.1% TFA for equilibration and sample loading, and 0.1% TFA in 70% acetonitrile for peptide elution. Recovered peptides were freeze-dried by vacuum-centrifugation and stored at −20 °C.
Depending on the experiment, samples were either labeled with TMT-11plex (decryptM), TMT-10plex (non-decryptM, quadruplicates), or TMTpro reagent (time-series; all Thermo Scientific). Therefore, dried peptides were reconstituted in 15 µl 100 mM EPPS, pH 8.5 and each treatment condition was labeled with one channel of the respective TMT reagent (5 µl of 25 µg/µl reagent, Appendix Tables S4–S6). The reaction was incubated for 1 h at 23 °C and subsequently quenched with 0.4% hydroxylamine. Then, samples were pooled, acidified with 1% formic acid, and freeze-dried by vacuum-centrifugation. Labeled peptide pools were desalted on C18 Sep-Pak cartridges (37–55 µm particle size, 50 mg capacity, Waters), using 0.1% formic acid as equilibration solvent, and 0.1% formic acid in 60% acetonitrile was used as elution solvent. Eluted peptides were freeze-dried and stored at −20 °C until further use.
Basic reversed-phase (bRP) fractionation of peptides was performed on a Vanquish HPLC (Thermo Scientific). In short, dried peptides were reconstituted in 200 µl 25 mM ammonium bicarbonate, pH 8.0 and directly injected onto a Waters BEH130 XBridge C18 column (3.5 µm, 4.6 × 250 mm). […] Using an automated fraction collector, 96 fractions were collected between min 7 and 55 after injection. Fractions were acidified with 1% formic acid and pooled to 48 fractions, before they were freeze-dried and stored at −20 °C.
Immobilized metal ion affinity chromatography (IMAC) enrichment of phosphorylated peptides was performed on the Bravo automated liquid handling platform using AssayMAP Fe(III)-NTA cartridges (Agilent). In brief, the 48 dried peptide fractions were reconstituted in 0.1% TFA in 80% acetonitrile and further pooled to 12 fractions (200 µl final volume per well). The phosphopeptide enrichment protocol embedded in the Agilent AssayMAP Bravo Protein Sample Prep Workbench v2.0 software was run. Thereby, the cartridges were first primed with 150 μl 0.1% TFA in acetonitrile at 300 μl/min, and equilibrated with 150 μl 0.1% TFA in 80% acetonitrile at 10 μl/min. Then, pooled fractions were loaded at 5 µl/min and further washed three times with 150 μl 0.1% TFA in 80% acetonitrile at 50 μl/min. Enriched peptides were eluted with 60 μl 1% ammonium hydroxide at 5 μl/min.

PANC-1 cells = assay: Cell proliferation assay, GEM + ATR inhibitor (Incucyte confluence, 72 h); settings: for EC50: Homo sapiens, mean of replicates; for Curve bottom / Curve top: PANC-1, plateau of fitted curve, ratio drug/vehicle confluence;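 for EC50: in combination experiments GEM is titrated while ATRi is held at a fixed sub-EC50 dose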;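 for all read-outs here: PANC-1 confluence at 72 h taken as raw values, not normalized to starting confluence, with each experiment run in triplicate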
Procedure: Cells were seeded at 5000 cells/well into 96-well flat bottom plates (Eppendorf) and allowed to attach overnight. […] Cells were incubated for 72 h at 37 °C and 5% CO2. Cell confluence readouts at 72 h were either normalized to their initial confluence using the Incucyte software (AsPC-1) or used without prior normalization (all others). […] Each experiment was performed in triplicates, the data was plotted as mean ± standard deviation (s.d.).

Nc1nn2cc(F)cnc2c1C(=O)Nc1cncc(F)c1N1CCC(C(=O)N2CCN(C3COC3)CC2)CC1 [Gartisertib]
Ratio TMT 9 (PTM response normalized to 1,000 nM GEM), AAAS S495 ([1]; 1,000 nM GEM + 1 nM ATRi): 1.01 | Ratio TMT 8 (PTM response normalized to 1,000 nM GEM), AAAS S495 ([1]; 1,000 nM GEM + 3 nM ATRi): 1.19 | Ratio TMT 7 (PTM response normalized to 1,000 nM GEM), AAAS S495 ([1]; 1,000 nM GEM + 10 nM ATRi): 1.10 | Ratio TMT 6 (PTM response normalized to 1,000 nM GEM), AAAS S495 ([1]; 1,000 nM GEM + 30 nM ATRi): 1.01 | Ratio TMT 5 (PTM response normalized to 1,000 nM GEM), AAAS S495 ([1]; 1,000 nM GEM + 100 nM ATRi): 0.97 | Ratio TMT 4 (PTM response normalized to 1,000 nM GEM), AAAS S495 ([1]; 1,000 nM GEM + 300 nM ATRi): 1.12 | Ratio TMT 3 (PTM response normalized to 1,000 nM GEM), AAAS S495 ([1]; 1,000 nM GEM + 1,000 nM ATRi): 1.11 | Ratio TMT 2 (PTM response normalized to 1,000 nM GEM), AAAS S495 ([1]; 1,000 nM GEM + 3,000 nM ATRi): 1.00 | Ratio TMT 1 (PTM response normalized to 1,000 nM GEM), AAAS S495 ([1]; 1,000 nM GEM + 10,000 nM ATRi): 1.09 | Log2 PTM response (GEM+ATRi vs. GEM) ([1]; AASDHPPT-pS258): -1.6 | Log2 PTM response (GEM+ATRi vs. GEM) ([1]; BRCA1-pS1239): -2 | Log2 PTM response (GEM+ATRi vs. GEM) ([1]; BRD8-pS621): -1.6 | Log2 PTM response (GEM+ATRi vs. GEM) ([1]; CDKN2AIP-pS198): -1.3 | Log2 PTM response (GEM+ATRi vs. GEM) ([1]; CHEK1-pS317): -2.3 | Log2 PTM response (GEM+ATRi vs. GEM) ([1]; EXO1-pS714): -1.9 | Log2 PTM response (GEM+ATRi vs. GEM) ([1]; FANCD2-pS319): -1 | Log2 PTM response (GEM+ATRi vs. GEM) ([1]; HDGF-pS103): -1.6 | Log2 PTM response (GEM+ATRi vs. GEM) ([1]; HMGA1-pS9): -2 | Log2 PTM response (GEM+ATRi vs. GEM) ([1]; HMGA1-pS36;S44): -0.9 | Log2 PTM response (GEM+ATRi vs. GEM) ([1]; HMGA1-pS44): -2.1 | Log2 PTM response (GEM+ATRi vs. GEM) ([1]; HTATSF1-pS481): -1.1 | EC50 ([1]; approximate, from density plot Fig. 4C (peer review file), read-out: EC50 of the majority of pSQ/pTQ sites): ~10 nM | EC50 ([1]; approximate, from density plot Fig. 4C (peer review file), read-out: pEC50 of the majority of pSQ/pTQ sites (converted)): ~10 nM | EC50 ([1]; p-site dose-response in GEM-pre-treated cells, read-out: EC50, RALY S176): 1.91 nM | EC50 ([1]; p-site dose-response in GEM-pre-treated cells, read-out: pEC50, RALY S176 (converted)): 1.91 nM | EC50 ([1]; read-out: median EC50 across all drug-regulated pSQ/pTQ-sites): 21 nM | Log2 PTM response (GEM+ATRi vs. GEM) ([1]; LRRC42-pS385): -2.5 | Log2 PTM response (GEM+ATRi vs. GEM) ([1]; NBN-pS397): -1.3 | Log2 PTM response (GEM+ATRi vs. GEM) ([1]; NBN-pS615): -0.8 | Log2 PTM response (GEM+ATRi vs. GEM) ([1]; NSUN5-pS432): -2.2 | Log2 PTM response (GEM+ATRi vs. GEM) ([1]; PELP1-pS1033): -1 | Log2 PTM response (GEM+ATRi vs. GEM) ([1]; PHF14-pS294): -1.2 | Log2 PTM response (GEM+ATRi vs. GEM) ([1]; PNISR-pS706): -1.9 | Log2 PTM response (GEM+ATRi vs. GEM) ([1]; PPM1G-pS201): -2.3 | Log2 PTM response (GEM+ATRi vs. GEM) ([1]; PPP6R3-pS825): -1 | Log2 PTM response (GEM+ATRi vs. GEM) ([1]; PSMD4-pS266): -1.2 | Log2 PTM response (GEM+ATRi vs. GEM) ([1]; RAD18-pS368): -2.8 | Log2 PTM response (GEM+ATRi vs. GEM) ([1]; RIF1-pS1873): -1.4 | Log2 PTM response (GEM+ATRi vs. GEM) ([1]; SNRPA-pS115): -1 | Log2 PTM response (GEM+ATRi vs. GEM) ([1]; TCEA1-pS100;S97): -2.6 | Log2 PTM response (GEM+ATRi vs. GEM) ([1]; TCEB3-pS251): -1.6 | Log2 PTM response (GEM+ATRi vs. GEM) ([1]; THAP4-pS186): -1.3 | Log2 PTM response (GEM+ATRi vs. GEM) ([1]; TOPBP1-pS1504): -1.4 | Log2 PTM response (GEM+ATRi vs. GEM) ([1]; TSEN34-pS136): -1.3 | Log2 PTM response (GEM+ATRi vs. GEM) ([1]; UHRF1-pS393): -0.6 | Log2 PTM response (GEM+ATRi vs. GEM) ([1]; UIMC1-pS171): -1 | ATRi Regulation (Curve), RALY S176 ([1]; classified by CurveCurator): down | Curve Log2 Fold Change, RALY S176 ([1]; fitted dose-response curve): -1.45 log2 | PTM response (norm. to 1 µM GEM) ([1]; 1 µM GEM + ATRi 1 nM): 1.13 | PTM response (norm. to 1 µM GEM) ([1]; 1 µM GEM + ATRi 3 nM): 0.97 | PTM response (norm. to 1 µM GEM) ([1]; 1 µM GEM + ATRi 10 nM): 0.75 | PTM response (norm. to 1 µM GEM) ([1]; 1 µM GEM + ATRi 30 nM): 0.41 | PTM response (norm. to 1 µM GEM) ([1]; 1 µM GEM + ATRi 100 nM): 0.29 | PTM response (norm. to 1 µM GEM) ([1]; 1 µM GEM + ATRi 300 nM): 0.28 | PTM response (norm. to 1 µM GEM) ([1]; 1 µM GEM + ATRi 1000 nM): 0.21 | PTM response (norm. to 1 µM GEM) ([1]; 1 µM GEM + ATRi 3000 nM): 0.17 | PTM response (norm. to 1 µM GEM) ([1]; 1 µM GEM + ATRi 10000 nM): 0.19 | EC50 (PANC-1 cells; PANC-1, 72 h, read-out: EC50 mean [nM], PANC-1, experiment ATRi (ATR inhibitor alone)): 7880 nM | EC50 (PANC-1 cells; PANC-1, read-out: EC50 mean [nM], PANC-1, experiment ATRi (ATR inhibitor alone)): 7880 nM | EC50 (PANC-1 cells; PANC-1, read-out: EC50 mean [nM], PANC-1, experiment GEM+ATRi_dose1): 4.13 nM | EC50 (PANC-1 cells; PANC-1, read-out: EC50 mean [nM], PANC-1, experiment GEM+ATRi_dose2): 8.99 nM | EC50 (PANC-1 cells; PANC-1, read-out: EC50 mean [nM], PANC-1, experiment GEM+ATRi_dose3): 6.69 nM | Curve bottom (PANC-1 cells; experiment ATRi (ATR inhibitor alone)): 1.03 and 0.99 and 0.93 | Curve top (PANC-1 cells; experiment GEM+ATRi_dose1): 0.48 and 0.43 and 0.49 | Curve top (PANC-1 cells; experiment GEM+ATRi_dose2): 0.47 and 0.43 and 0.52 | Curve bottom (PANC-1 cells; experiment GEM+ATRi_dose3): 0.95 and 0.86 and 1.00 | Curve top (PANC-1 cells; experiment GEM+ATRi_dose3): 0.47 and 0.45 and 0.50
